Test results taken from patent US6693120B1, “Spray drying of thrombin inhibitors” (Abbott GmbH & Co. KG, priority 1999, dated 2004).

Columns and labels:
Assay type in all cases: physicochemical
[1] = Storage stability at 70° C., 1 bar in an open vessel (HPLC)
[2] = Hygroscopicity: weight gain on storage in desiccators at constant humidity; parameters: unit not given here; conditions: vacuum-dried
Experimental: To determine the hygroscopicity, samples of the dry active substance are stored in desiccators in which a constant humidity has been set by saturated salt solutions, at constant temperature. The weight change is determined by weighing at intervals of a few days. The weight gain is determined by the following formula: [formula]

[3] = HPLC content of the active substance after drying

Substance: N-((Hydroxycarbonyl)methylen)-(R)-cyclohexylalanyl-(S)-3,4-dehydroproline 6-Amidino-3-picolinylamide Dihydrochloride [Betaine × 2HCl]
- active substance content based on initial active substance content ([1]; 0 days): 100 HPLC % areas
- active substance content based on initial active substance content ([1]; 7 days): 99.7 HPLC % areas
- active substance content based on initial active substance content ([1]; 14 days): 99.7 HPLC % areas

Substance: N-((Hydroxycarbonyl)methylene)-(R)-cyclohexylalanyl-(S)-3,4-dehydroproline 6-Amidino-3-Picoli-nylamide [Betaine (n = 0)]
- active substance content based on initial active substance content ([1]; 0 days): 100 HPLC % areas
- active substance content based on initial active substance content ([1]; 7 days): 92.5 HPLC % areas
- active substance content based on initial active substance content ([1]; 14 days): 88.6 HPLC % areas

Substance: N-((Hydroxycarbonyl)methylene)-(R)-cyclohexylalanyl-(S)-3,4-dehydroproline 6-Amidino-3-picolinylamide Hydrochloride [Betaine × HCl]
- weight gain ([2]; 45% R.H., 0 days): 0
- weight gain ([2]; 45% R.H., 3 days): 0.28
- weight gain ([2]; 45% R.H., 6 days): 0.31
- weight gain ([2]; 45% R.H., 9 days): 0.26
- weight gain ([2]; 45% R.H., 14 days): 0.23
- weight gain ([2]; 45% R.H., 21 days): 0.26
- weight gain ([2]; 65% R.H., 0 days): 0
- weight gain ([2]; 65% R.H., 3 days): 3.50
- weight gain ([2]; 65% R.H., 6 days): 3.86
- weight gain ([2]; 65% R.H., 9 days): 3.59
- weight gain ([2]; 65% R.H., 14 days): 3.54
- weight gain ([2]; 65% R.H., 21 days): 3.45
- weight gain ([2]; 75% R.H., 0 days): 0
- weight gain ([2]; 75% R.H., 3 days): 7.60
- weight gain ([2]; 75% R.H., 6 days): 9.31
- weight gain ([2]; 75% R.H., 9 days): 7.98
- weight gain ([2]; 75% R.H., 14 days): 7.84
- weight gain ([2]; 75% R.H., 21 days): 7.86
- weight gain ([2]; 86% R.H., 0 days): 0
- weight gain ([2]; 86% R.H., 3 days): 15.51
- weight gain ([2]; 86% R.H., 6 days): 20.23
- weight gain ([2]; 86% R.H., 9 days): 16.66
- weight gain ([2]; 86% R.H., 14 days): 16.61
- weight gain ([2]; 86% R.H., 21 days): 16.14
- weight gain ([2]; 93% R.H., 0 days): 0
- weight gain ([2]; 93% R.H., 3 days): 19.73
- weight gain ([2]; 93% R.H., 6 days): 20.34
- weight gain ([2]; 93% R.H., 9 days): 18.97
- weight gain ([2]; 93% R.H., 14 days): 19.11
- weight gain ([2]; 93% R.H., 21 days): 18.78
- HPLC content of the active substance in % areas ([3]; spray dried): 98.5%
- byproducts ([3]; spray dried): no additional
- HPLC content of the active substance in % areas ([3]; vacuum dried (60° C./12 h)): 97.8%
- byproducts ([3]; vacuum dried (60° C./12 h)): additional byproducts
- active substance content based on initial active substance content ([1]; 0 days): 100 HPLC % areas
- active substance content based on initial active substance content ([1]; 7 days): 98.5 HPLC % areas
- active substance content based on initial active substance content ([1]; 14 days): 97.5 HPLC % areas
